Experimental data: patent US10798941B2, “Microbiocidal oxadiazole derivatives” (SYNGENTA PARTICIPATIONS AG, priority 2016, dated 2020)

Legend:
[1] = system: Glomerella Lagenarium (Colletotrichum Lagenarium); assay: Glomerella lagenarium (Colletotrichum lagenarium) liquid culture / cucumber / preventative (anthracnose); assay type: cell-based; conditions: Colletotrichum orbiculare; 20 ppm in the applied formulation; liquid culture in PDB, 24° C., inhibition of growth measured photometrically 3 to 4 days after application, vs untreated; read-out: disease control
Method in brief: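 Conidia from cryogenic storage were mixed into potato dextrose broth. This was added to compound diluted from DMSO into 0.025% Tween20, tested at 20 ppm. Plates were incubated in the dark at 24 °C and 96% relative humidity, and growth was read photometrically after 2–7 days as % activity versus untreated check.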

[2] = system: Puccinia recondita f. Sp. Tritici; assay: Puccinia recondita f. sp. tritici / wheat / leaf disc preventative (brown rust); assay type: in vivo; conditions: foliar, 168 h, 200 ppm in the applied formulation, wheat leaf segments cv. Kanzler, preventative, inoculated 1 day after application, assessed 7 to 9 days after application, vs untreated, read-out: disease control
Method in brief: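 Preventative leaf-segment test: spray application of diluted formulated compound on wheat cv. Kanzler, spore inoculation after 1 day. Percent control relative to untreated segments rated 7 to 9 days post-application, with incubation at 19° C, 75% relative humidity, 12 h photoperiod.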

[3] = system: Puccinia recondita f. Sp. Tritici; assay: Puccinia recondita f. sp. tritici / wheat / leaf disc curative (brown rust); assay type: in vivo; conditions: foliar, 144 h, 200 ppm in the applied formulation, wheat leaf segments cv. Kanzler, applied 1 day after inoculation, assessed 6 to 8 days after application, vs untreated, read-out: disease control
Method in brief: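 Curative leaf-segment test, cv. Kanzler: spore inoculation, dark storage 19° C/75% RH, compound spray 1 day post-inoculation. Then 12 h light/12 h dark, 19° C, 75% RH. Read-out: % disease control vs untreated check, 6–8 d after application.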

[4] = system: Phakopsora pachyrhizi; assay: Phakopsora pachyrhizi / soybean / leaf disc preventative (Asian soybean rust); assay type: in vivo; conditions: foliar, 288 h, 200 ppm in the applied formulation, soybean leaf disks, inoculated one day after application, assessed 12 to 14 days after application, vs untreated, read-out: disease control
Method in brief: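 Read-out is percent disease control relative to untreated check discs, assessed once untreated discs show adequate disease, 12 to 14 days after application. Compounds, tested at 200 ppm in the applied formulation, are sprayed onto soybean leaf discs one day before inoculation with a spore suspension.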

Structure (SMILES)	melting point [°C]	inhibition of growth at 20 ppm [1] [%]	pest or weed control at 200 ppm [2] [%]	pest or weed control at 200 ppm [3] [%]	pest or weed control at 200 ppm [4] [%]
COC(=O)c1ncn(Cc2ccc(-c3noc(C(F)(F)F)n3)cc2)n1 [Compound 1.37, methyl 1-[[4-[5-(trifluoromethyl)-1,2,4-oxadiazol-3-yl]phenyl]methyl]-1,2,4-triazole-3-carboxylate]	174 to 177.2	≥ 80	≥ 80	–	–
COc1cc(-c2noc(C(F)(F)F)n2)ccc1Cn1cncn1 [Compound 1.97, 3-[3-methoxy-4-(1,2,4-triazol-1-ylmethyl)phenyl]-5-(trifluoromethyl)-1,2,4-oxadiazole]	102 to 106	≥ 80	–	≥ 80	–
COCCNC(=O)c1cnn(Cc2ccc(-c3noc(C(F)(F)F)n3)cc2)c1 [Compound 1.250, N-(2-methoxyethyl)-1-[[4-[5-(trifluoromethyl)-1,2,4-oxadiazol-3-yl]phenyl]methyl]pyrazole-4-carboxamide]	132 to 142	≥ 80	≥ 80	–	–
N#Cc1ncn(Cc2ccc(-c3noc(C(F)(F)F)n3)c(F)c2)n1 [Compound 1.255, 1-[[3-fluoro-4-[5-(trifluoromethyl)-1,2,4-oxadiazol-3-yl]phenyl]methyl]-1,2,4-triazole-3-carbonitrile]	120 to 123	≥ 80	≥ 80	≥ 80	–
N#Cc1ncn(Cc2ccc(-c3noc(C(F)(F)F)n3)nc2)n1 [Compound 1.257, 1-[[6-[5-(trifluoromethyl)-1,2,4-oxadiazol-3-yl]-3-pyridyl]methyl]-1,2,4-triazole-3-carbonitrile]	105 to 108	≥ 80	–	–	–
CC(C)(C)OC(=O)c1cnn(Cc2ccc(-c3noc(C(F)(F)F)n3)cc2)c1 [Compound 1.262, ~{tert}-butyl 1-[[4-[5-(trifluoromethyl)-1,2,4-oxadiazol-3-yl]phenyl]methyl]pyrazole-4-carboxylate]	81 to 91	≥ 80	≥ 80	–	–
CONC(=O)c1cnn(Cc2ccc(-c3noc(C(F)(F)F)n3)cc2)c1 [Compound 1.266, ~{N}-methoxy-1-[[4-[5-(trifluoromethyl)-1,2,4-oxadiazol-3-yl]phenyl]methyl]pyrazole-4-carboxamide]	128 to 138	–	–	–	–
CCNC(=O)c1cnn(Cc2ccc(-c3noc(C(F)(F)F)n3)cc2)c1 [Compound 1.267, ~{N}-ethyl-1-[[4-[5-(trifluoromethyl)-1,2,4-oxadiazol-3-yl]phenyl]methyl]pyrazole-4-carboxamide]	166 to 176	–	–	–	–
CCOC(=O)c1cnn(Cc2ccc(-c3noc(C(F)(F)F)n3)nc2)c1 [Compound 1.269, ethyl 1-[[6-[5-(trifluoromethyl)-1,2,4-oxadiazol-3-yl]-3-pyridyl]methyl]pyrazole-4-carboxylate]	88 to 90	≥ 80	≥ 80	≥ 80	–
O=C(O)c1cn(Cc2ccc(-c3noc(C(F)(F)F)n3)cc2)nn1 [Compound 1.271, 1-[[4-[5-(trifluoromethyl)-1,2,4-oxadiazol-3-yl]phenyl]methyl]triazole-4-carboxylic acid]	208 to 210	–	≥ 80	≥ 80	–
COc1ccc(NC(=O)c2cn(Cc3ccc(-c4noc(C(F)(F)F)n4)cc3)nn2)cc1 [Compound 1.281, N-(4-methoxyphenyl)-1-[[4-[5-(trifluoromethyl)-1,2,4-oxadiazol-3-yl]phenyl]methyl]triazole-4-carboxamide]	205 to 207	≥ 80	≥ 80	≥ 80	–
O=C(Nc1ccc(Cl)cc1)c1cn(Cc2ccc(-c3noc(C(F)(F)F)n3)cc2)nn1 [Compound 1.282, N-(4-chlorophenyl)-1-[[4-[5-(trifluoromethyl)-1,2,4-oxadiazol-3-yl]phenyl]methyl]triazole-4-carboxamide]	233 to 235	–	≥ 80	–	–
CON=Cc1cnn(Cc2ccc(-c3noc(C(F)(F)F)n3)cc2)c1 [Compound 1.285]	88 to 98	–	–	–	–
CCCON=Cc1cnn(Cc2ccc(-c3noc(C(F)(F)F)n3)cc2)c1 [Compound 1.287, N-propoxy-1-[1-[[4-[5-(trifluoromethyl)-1,2,4-oxadiazol-3-yl]phenyl]methyl]pyrazol-4-yl]methanimine]	60 to 95	≥ 80	≥ 80	≥ 80	–
FC(F)(F)c1nc(-c2ccc(Cn3cc(C=NOCc4ccccc4)cn3)cc2)no1 [Compound 1.289, N-benzyloxy-1-[1-[[4-[5-(trifluoromethyl)-1,2,4-oxadiazol-3-yl]phenyl]methyl]pyrazol-4-yl]methanimine]	75 to 85	≥ 80	≥ 80	–	–
CNC(=O)c1cnnn1Cc1ccc(-c2noc(C(F)(F)F)n2)cc1 [Compound 1.291, N-methyl-3-[[4-[5-(trifluoromethyl)-1,2,4-oxadiazol-3-yl]phenyl]methyl]triazole-4-carboxamide]	222 to 224	–	–	≥ 80	–
CS(=O)(=O)c1ncnn1Cc1ccc(-c2noc(C(F)(F)F)n2)cc1 [Compound 1.294, 3-[4-[(5-methylsulfonyl-1,2,4-triazol-1-yl)methyl]phenyl]-5-(trifluoromethyl)-1,2,4-oxadiazole]	119.2 to 119.8	≥ 80	≥ 80	≥ 80	–
C[S+]([O-])c1ncnn1Cc1ccc(-c2noc(C(F)(F)F)n2)cc1 (stereo not drawn) [Compound 1.295, 3-[4-[(5-methylsulfinyl-1,2,4-triazol-1-yl)methyl]phenyl]-5-(trifluoromethyl)-1,2,4-oxadiazole]	71.2 to 73.7	≥ 80	≥ 80	≥ 80	–
CS(=O)(=O)c1ncn(Cc2ccc(-c3noc(C(F)(F)F)n3)cc2)n1 [Compound 1.296, 3-[4-[(3-methylsulfonyl-1,2,4-triazol-1-yl)methyl]phenyl]-5-(trifluoromethyl)-1,2,4-oxadiazole]	145.4 to 146.4	≥ 80	≥ 80	≥ 80	–
C[S+]([O-])c1ncn(Cc2ccc(-c3noc(C(F)(F)F)n3)cc2)n1 (stereo not drawn) [Compound 1.297, 3-[4-[(3-methylsulfinyl-1,2,4-triazol-1-yl)methyl]phenyl]-5-(trifluoromethyl)-1,2,4-oxadiazole]	114.4 to 115.2	≥ 80	≥ 80	≥ 80	–
CSc1ncnn1Cc1ccc(-c2noc(C(F)(F)F)n2)cc1 [Compound 1.298, 3-[4-[(5-methylsulfanyl-1,2,4-triazol-1-yl)methyl]phenyl]-5-(trifluoromethyl)-1,2,4-oxadiazole]	72 to 73.2	≥ 80	≥ 80	≥ 80	–
CSc1ncn(Cc2ccc(-c3noc(C(F)(F)F)n3)cc2)n1 [Compound 1.299, 3-[4-[(3-methylsulfanyl-1,2,4-triazol-1-yl)methyl]phenyl]-5-(trifluoromethyl)-1,2,4-oxadiazole]	88 to 90.4	≥ 80	≥ 80	≥ 80	–
FC(F)(F)c1nc(-c2ccc(CN3CCSCC3)cc2)no1 [Compound 1.302, 3-[4-(thiomorpholino-methyl)phenyl]-5-(trifluoromethyl)-1,2,4-oxadiazole]	54.5 to 56.6	≥ 80	≥ 80	≥ 80	–
CCOC(=O)c1cnn(CCc2ccc(-c3noc(C(F)(F)F)n3)cc2)c1 [Compound 1.310, ethyl 1-[2-[4-[5-(trifluoromethyl)-1,2,4-oxadiazol-3-yl]phenyl]ethyl]pyrazole-4-carboxylate]	108 to 110	–	≥ 80	–	≥ 80
CCOC(=O)c1cnn(CC(F)c2ccc(-c3noc(C(F)(F)F)n3)cc2)c1 (stereo not drawn) [Compound 1.311, ethyl 1-[2-fluoro-2-[4-[5-(trifluoromethyl)-1,2,4-oxadiazol-3-yl]phenyl]ethyl]pyrazole-4-carboxylate]	145 to 147	–	–	–	–
